These results are taken from patent US20210108199A1, “Treatment for aggressive cancers by targeting C9ORF72” (The Trustees of Columbia University in the City of New York, priority 2017, published 2021).

One series relates to U87 p53 null KO #4 cells. In words: Vacuoles in p53 null cells transfected with HA tagged wtp53. In kind it is cell-based. As to conditions: U87 p53 null KO #4 cells transfected with HA tagged wtp53. As for the experimental part:
To provide further evidence of p53 involvement in vacuolization, it was tested whether p53 transfection into p53 null cell lines in C9 KD background induced accumulation of vacuoles. […] In FIG. 36A, phase contrast images (40×) are shown of U87 p53 null KO #4 cells that were transfected with HA tagged wtp53 and then treated with control (siCtrl) or C9 (siC9; SEQ ID NO:631) siRNA. The black boxes show the location of the zoomed in images below with black arrows pointing to vacuoles. […] FIG. 36C is a graph that presents quantitation of data from about 100 cells, indicating the number of vacuoles per cell for conditions described above. Statistical significance was assessed by unpaired t-test: NS P>0.05, *P≤0.05, **P≤0.01, ***P≤0.001 ****P≤0.0001.

Series [1] deals with U87 cells. As to the kind of experiment: Dextran measurement of macropinocytosis. It is filed as cell-based. As to conditions: fluorescein dextran. As for the experimental part: U87 cells were treated with control and C9 siRNA for a total of 3 days. At day 2, cells were treated with a final concentration of 20 μM dextran and incubased overnight. On day 3, cells were washed with phenol red-free DMEM and then imaged using excitation/emission for fluorescein (494/521) on an LSM 700; Carl Zeiss™ microscope.
In this study, a fluid phase marker, fluorescein dextran, was added to the media. If the vacuoles are macropinosomes, the marker will be taken up and internalized, resulting in green fluorescent macropinocytosis.
The right images are a merge between the left and middle images. The scale bar represents 10 μm. White arrows indicate the position of vacuoles. In FIG. 8, the upper panels are fluorescent images (Alexa™ 488) of U87 cells treated with control (siCtrl) and C9 (siC9; SEQ ID NO:631) siRNA as indicated incubated in fluorescein dextran (green). The lower panels are the same cells imaged in phase contrast.

A further series relates to HeLa cells. As to the kind of experiment: Mitochondrial live imaging in HeLa cells. In kind it is cell-based. Particulars: vs control. As for the experimental part:
Mitochondrial accumulation then was investigated in other cell lines. C9 KD was performed in HeLa cells, followed by a fluorescent mitochondrial dye for live imaging. […] To study the mitochondrial dysfunction phenotype upon C9 KD in a non-cancer cell line, C9 was knocked down in rat-derived cortical neurons in combination with a mitochondrial stain.

The subject of another series is LAMP1. In words: LAMP1 western blot. It is filed as cell-based. Particulars: U87 cells. As for the experimental part: (§1) For Western blot analysis, cells were lysed with lysis buffer (20 mM sodium phosphate (pH 7.0), 250 mM NaCl, 30 mM sodium pyrophosphate, 0.1% Nonidet™ P-40, 5 mM EDTA, 10 mM NaF, 0.1 mM Na3VO4, and 1 mM PMSF) supplemented with complete protease inhibitors (Roche™) and homogenized by passage through a 28 gauge needle. Protein concentration was measured with a Bio-Rad™ protein assay dye reagent and results were read using a spectrophotometer (BiophotometerPlus™ by Eppendorf™). Protein extracts were resolved by SDS PAGE on gradient (Thermo Fisher™) or 12% gels. Proteins were then electrotransferred at 350 mA for 80 minutes onto a PVDF membrane (Immobilon-P PVDF). Membranes were blocked with PBST with 5% milk and 1% BSA for 30 minutes. Quantitation of blots was performed Image Studio Lite software (LI-COR Biosciences™).
To this end, C9 was knocked down in U87 cells and employed a fluorescent autophagy marker ptfLC3 to mark autophagosomes and autophagolysosomes. […] The white arrows show vacuoles and the white box represents a zoom in of the cell area with vacuoles. […] The white box here represents a zoom in of the cell area with vacuoles, nuclei stained with DAPI (blue). FIG. 4B is a WB showing LAMP1 levels after control (siCtrl) and C9 KD (siC9; SEQ ID NO:631).
For orientation: Immunoblotting shows a protein as a band on a membrane.

The subject of series [2] is U87 cells. In words: FACS cell cycle analysis. It is filed as cell-based. As to conditions: day three. As for the experimental part: U87 cells were treated with control and C9 siRNA for 3 days. On day 3, cells were fixed in 70% ethanol at −20° C., re-suspended in phosphate-citrate buffer (192 mM Na2HPO4, 4 mM citric acid), and incubated for 30 minutes in PBS containing 10 μg/mL propidium iodide (PI) and 10 μg/mL RNase A. Data were collected on a FACSCalibur™ flow cytometer (Becton Dickinson™). Data analysis was performed using FlowJo™.
To validate the cell viability assays, C9 was knocked down in U87 cells and the cells were analyzed by FACS. […] The bar plots represent the cell cycle measurement (subG1-purple, G2-green, S-red, G1-blue) of three independent biological replicates upon control (siCtrl) or C9 (siC9; SEQ ID NO:631) siRNA. Error bars represent S.E.M.

A further series deals with p53 target genes. As to the kind of experiment: qRT-PCR of p53 target genes. In kind it is cell-based. As to conditions: U87 cells. As for the experimental part: For most RNA experiments, RNA was isolated from cells using the Qiagen™ RNeasy minikit. Complementary DNA was generated using the Qiagen™ Quantitect™ reverse transcription kit with 0.5 μg of input RNA as measured with a NanoDrop spectrophotometer (Thermo Scientific™). Real-time PCR was carried out on an ABI StepOne Plus™ machine using power SYBR Green dye (Thermo Scientific™). Transcript levels were assayed in triplicate and normalized to RPL32 and HPS90 mRNAs. Relative changes in cDNA levels were calculated using the comparative Ct method (ΔΔCT method). All RT-qPCR primers were designed with Primer3Plus™ or retrieved from Primerbank™. Primer sequences are listed here, including in Table 3. All primers were purchased from Life Technologies™. H. Generation of p53 Knock Out U87 Cell Lines by CRISPR
This also is consistent with p53 activation. FIG. 27 presents RT-qPCR analysis of C9ORF72, CDKN1A (p21), NOXA, PUMA, GLUT1, MDM2 and GLUT3 mRNA levels in U87 cells treated with control (siCtrl) and C9 (siC9; SEQ ID NO:631) siRNA. These studies were performed using three biological replicates (n=3); error bars represent S.E.M. Statistical significance was assessed by an unpaired t-test: NS P>0.05, *P≤0.05, **P≤0.01, ***P≤0.001 ****P≤0.0001.
In general terms: In qPCR the cycle at which signal appears reflects the starting amount.

The next series has as its system U2OS cells. In words: Western blot of U2OS cells after C9 KD. It is filed as cell-based, human. As for the experimental part: as §1
See FIG. 28, a WB of U2OS cells treated with control and C9 siRNA and probed for PARP1, p-p53 (s15), p53, p-ERK, p21, p-H2AX, using actin as a loading control.

“siC9: siRNA targeting C9 mRNA: UUAAUGAAACAAUAAUCACUC (SEQ ID NO:631; sense) and GUGAUUAUUGUUUCAUUAAUC (SEQ ID NO:632; antisense) (listed as RNA, chemistry not given here)”: in the series with U87 p53 null KO #4 cells, the vacuoles per cell result is given as “significant increase”. Further, the dextran in vacuoles entry in the series with U87 cells [1] was “formation of vacuoles filled with dextran”. Also, in the series on HeLa cells, the mitochondrial network organization result is “mitochondrial network disorganization”. Further, the LAMP1 levels result in the series with LAMP1 is given as “increased levels”. Further, in the series on U87 cells [2], the “decrease in G1” value came out at 4.7 fold, the “increase in S phase” value stood at 3.3 fold and the “increase in SubG1 phase” value came out at 3.1 fold. Further, in the series on p53 target genes, the “mRNA levels of p53 target genes (p21, MDM2, NOXA, PUMA)” value was “elevated”; the “mRNA levels of repression targets (GLUT1 and GLUT3)” value is reported as “lower mRNA levels”. In the series on U2OS cells, the CDKN1A/p21 protein levels result was “increase in CDKN1A/p21 protein levels”, the PARP1 level entry is listed as “PARP1 downregulation”, the p53 levels result is reported as “increased p53 levels” and the p-ERK result is listed as “increases in p-ERK”. For the same substance, in the series with U2OS cells, the “phosphorylated p53 (on s15)” value was “increases in phosphorylated p53” and the γ-H2AX entry is recorded as “increases”.
